The nature of data set [1]: Aging promotion testing: sunlight 30 min / fading one hour cycles, 10 days (durability, coloring degree). In kind it is physicochemical. As to the method: In order to promote the aging, furthermore, the following testing was conducted. That is, the obtained photochromic polymer was irradiated with sunlight for 30 minutes to develop color, and its color was permitted to fade for one hour in the light of a fluorescent lamp. This cycle was repeated three times a day for a total of 10 days.
The photochromic properties before and after aged were evaluated by evaluating the color densities before and after aged. The initial color density (T0) and the color density (T30) ten days after the aging promotion testing were measured, and the durability was expressed as described below.
Furthermore, the coloring degrees of before developing color were measured before and after aged by using a color difference meter (SM-4) manufactured by Suga Shikenki Co.
7 Coloring degree before being aged=YI(0).
8 Change in the coloring degree (ΔYI)=YI(10)-YI(0)
YI(10): coloring degree after aged
(§1) Photochromic polymers were prepared in the same manner as in Example 42 but using the chromene compounds obtained in Examples 2 to 41, and their maximum absorption wavelengths, color densities, fading rates, changes in the coloring degrees and durabilitys were measured.
(§2) For the purpose of comparison, furthermore, the compounds represented by the following formulas (a), (b), (c), (d), (e) and (f) were measured for their maximum absorption wavelengths, color densities, fading rates, changes in the coloring degrees and durabilitys.
(§3) The procedure was carried out in the same manner as in Example 42 but using 100 parts of AC1 and 133 parts of BC1, the sum of the amounts of AC1 and BC1 being 0.04% by weight. The obtained photochromic polymer was measured for its maximum absorption wavelength, initial color, color density, color-developing sensitivity, fading rate, durability and change in the coloring degree.
(§4) The procedure was carried out in the same manner as in Example 83 but using the known chromene compounds shown in Table 6 instead of the chromene compound used in Example 83. […]
The obtained polymer (2 mm thick) was caused to develop color outdoors, and tones of the developed color were observed by eyes 30 seconds and 15 minutes after it was brought to the outdoors, and uniformity in the step of developing color was evaluated. […] Furthermore, the aging promoting testing was conducted in the same manner as in Example 42 to find a coloring degree (YI(0)) before aged and a change in the coloring degree (ΔY).

Data set [2] in a line: Photochromic properties of cast polymer (2 mm thick) under xenon lamp irradiation for 120 seconds. The following applies: for λ max: chromene composition, or other chromene C1-C4, 0.04% by weight in polymer; for Initial color ε(0): chromene composition, or other chromene C1-C4, non-irradiated; for Color-developing sensitivity: saturated color density/xenon irradiation time. In kind it is physicochemical. As to the method: 0.04% by weight of the chromene compound obtained in Example 1 was added to 70 parts of 4G, 15 parts of 3G, 10 parts of GMA, 5 parts of HEMA and 1 part of perbutyl ND, and was mixed together to a sufficient degree. The mixture solution was poured into a mold constituted by a glass plate and a gasket of an ethylene/vinyl acetate copolymer, and was cast-polymerized. By using an air furnace, the polymerization was conducted in a manner that the temperature was gradually raised from 30° C. to 90° C. over a period of 18 hours, and was held at 90° C. for 2 hours. After the polymerization, the polymer was taken out from the glass mold.
By using a xenon lamp, L-2480 (300 W) SHL-100, manufactured by Hamamatsu Photonics Co., the obtained polymer (2 mm thick) was irradiated with a beam of an intensity of 365 nm=2.4 mW/cm^2 and 245 nm=24 μW/cm^2 on the surface of the polymer for 120 seconds through an aero-mass filter (manufactured by Corning Co.) at 20° C.±1° C. to develop color and to measure the photochromic properties which were expressed in the following manner.
1 Maximum absorption wavelength (λmax): λmax of the polymer after it has developed color was found by using a spectrophotometer (instantaneous multi-channel photo-detector, MCPD1000) manufactured by Otsuka Denshi Kogyo Co.
2 Initial color ( ε(0)): Absorbency of the polymer in a non-irradiated state at a wavelength same as the maximum absorption wavelength of when it is irradiated with light.
3 Color density (-)=ε(120)-ε(0). ε(120): Absorbency of the polymer at a maximum absorption wavelength after it was irradiated for 120 seconds under the above-mentioned conditions.
4 Color-developing sensitivity (-/min.)=Saturated color density/xenon irradiation time.
Rate of increase in the color density per a unit time until the color density is saturated.
5 Color fading rate [t1/2 (min.)]=time required until the absorbency of the polymer drops down to one-half of [ε(120)-ε(0)] after irradiated for 120 seconds.
as §1, §2, §3, §4

Setting [3] is: YI(10)-YI(0), single chromene compound in polymer, 10 days aging, Table 5.
Setting [4] is: single chromene compound in polymer, 10 days aging, Table 5.
[5] abbreviates: single chromene compound 0.04% by weight in polymer, 20° C., Table 5.
[6] abbreviates: single chromene compound 0.04% by weight in polymer, 120 seconds, 20° C., Table 5.
[7] abbreviates: chromene composition, or other chromene C1-C4, 10 days aging, Table 6.
Where [8] appears, read: chromene composition, or other chromene C1-C4, 120 seconds, Table 6.
Where [9] appears, read: chromene composition, or other chromene C1-C4, Table 6.

In the case of `CC(C)(C)c1cc2ccccc2c2c1C=CC1(O2)C2CC3CC(C2)CC1C3` (stereo not drawn) [Compound 24], the “Change in the coloring degree ΔYI” value in data set [1] (setting [3]) turned out to be 5.0. In data set [1] (setting [4]), the “Light resistance (durability)” value is 95%. Also, in data set [2] (setting [5]), the “Fading rate t1/2” value stood at 1.8 min and the “Maximum absorption wavelength λmax” value is given as 445 nm. The “Color density ε(120)-ε(0)” value in data set [2] (setting [6]) amounted to 0.6.
In the same order, the values of `CC(C)(C)c1cc2ccccc2c2c1C=CC(c1ccccc1)(c1cc3ccccc3s1)O2` (stereo not drawn) [Compound 11] are 1.9, 97%, 3.4 min, 485 nm and 1.0.
In the same order, the values of `CCOc1ccc(C2(c3ccc(OC)cc3)C=Cc3c(CC)cc4c(Cc5ccccc5)cccc4c3O2)cc1` (stereo not drawn) [Compound 39] are 2.5, 96%, 5.8 min, 524 nm and 1.0.
In the same order, the values of `CCC(C)(C)c1cc2ccccc2c2c1C=CC(c1ccc(OC)cc1)(c1ccco1)O2` (stereo not drawn) [Compound 3] are 2.0, 95%, 3.1 min, 488 nm and 1.1.
With `CC(C)c1cc2ccccc2c2c1C=CC1(O2)C2CC3CC(C2)CC1C3` (stereo not drawn) [Compound 25], the “Change in the coloring degree ΔYI” value in data set [1] (setting [3]) was 2.2. In data set [1] (setting [4]), the “Light resistance (durability)” value turned out to be 92%. Besides, in data set [2] (setting [5]), the “Fading rate t1/2” value is given as 2.0 min and the “Maximum absorption wavelength λmax” value is recorded as 454 nm. In addition, the “Color density ε(120)-ε(0)” value in data set [2] (setting [6]) is 0.7.
On to `COc1ccc(C2(c3ccc(OC)cc3)C=Cc3c(C)cc4c(OC)cccc4c3O2)cc1` [Compound 33], for which the “Change in the coloring degree ΔYI” value in data set [1] (setting [3]) is recorded as 2.2. Also, the “Light resistance (durability)” value in data set [1] (setting [4]) was 98%. In data set [2] (setting [5]), the “Fading rate t1/2” value is 5.5 min and the “Maximum absorption wavelength λmax” value came to 520 nm. Moreover, the “Color density ε(120)-ε(0)” value in data set [2] (setting [6]) is on record as 1.3.
The corresponding values for `COc1ccc(C2(c3ccco3)C=Cc3c(C)cc4c(F)ccc(C)c4c3O2)cc1` (stereo not drawn) [Compound 41] are 3.2, 95%, 6.3 min, 510 nm and 1.0.
On to `Cc1cc2ccccc2c2c1C=CC(c1ccccc1)(c1ccccc1)O2` [c, reference compound], for which the “Change in the coloring degree ΔYI” value in data set [1] (setting [3]) is on record as 2.4. For the same molecule, the “Light resistance (durability)” value in data set [1] (setting [4]) is given as 96%. In data set [2] (setting [5]), the “Fading rate t1/2” value came to 20 min and the “Maximum absorption wavelength λmax” value is 484 nm. The “Color density ε(120)-ε(0)” value in data set [2] (setting [6]) stood at 1.3.
Regarding `CCOC(=O)c1c2c(c3ccccc3c1C)OC(c1ccccc1)(c1ccccc1)C=C2` [Compound C2, 5-Ethoxycarbonyl-6-methyl-2,2-diphenyl-2H-benzo(h) chromene, reference compound], in data set [1] (setting [7]), the “Change in the coloring degree ΔYI” value was 4.0 and the Durability turned out to be 95%. In data set [2] (Table 6), the λ max amounted to 458 nm, the “Initial color ε(0)” value is 0.02 and the Color-developing sensitivity is 0.2 -/min. Further, in data set [2] (setting [8]), the “Color density ε(120)-ε(0)” value is listed as 0.9. For the same molecule, the “Fading rate t1/2” value in data set [2] (setting [9]) amounted to 4.0 min.
`CC(C)c1cc2ccccc2c2c1C=CC(c1ccccc1)(c1ccc3ccccc3c1)O2` (stereo not drawn) [Compound 7]: the “Change in the coloring degree ΔYI” value in data set [1] (setting [3]) was found to be 1.7. Moreover, the “Light resistance (durability)” value in data set [1] (setting [4]) amounted to 96%. In data set [2] (setting [5]), the “Fading rate t1/2” value is 3.5 min and the “Maximum absorption wavelength λmax” value stood at 468 nm. Also, in data set [2] (setting [6]), the “Color density ε(120)-ε(0)” value is 0.8.
Turning to `CC(C)(C)c1cc2ccccc2c2c1C=CC(c1ccccc1)(c1ccccc1)O2` [Compound 1], the “Change in the coloring degree ΔYI” value in data set [1] (setting [3]) turned out to be 0.2. Also, the “Light resistance (durability)” value in data set [1] (setting [4]) is given as 99%. For the same molecule, in data set [2] (setting [5]), the “Fading rate t1/2” value was 3.6 min and the “Maximum absorption wavelength λmax” value is 462 nm. The “Color density ε(120)-ε(0)” value in data set [2] (setting [6]) turned out to be 0.7.
Turning to `CC(=O)Oc1ccc2c3c(c(C(C)C)cc2c1)C=CC(c1ccc(C)cc1)(c1ccc(C)cc1)O3` [Compound 10], the “Change in the coloring degree ΔYI” value in data set [1] (setting [3]) turned out to be 1.5. The “Light resistance (durability)” value in data set [1] (setting [4]) was found to be 93%. Besides, in data set [2] (setting [5]), the “Fading rate t1/2” value is given as 3.2 min and the “Maximum absorption wavelength λmax” value is on record as 465 nm. Also, the “Color density ε(120)-ε(0)” value in data set [2] (setting [6]) was 0.6.
With `Cc1c2c(c3ccccc3c1C)OC(c1ccccc1)(c1ccccc1)C=C2` [Compound C3, 5,6-Dimethyl-2,2-diphenyl-2H-benzo(h)chromene, reference compound], in data set [1] (setting [7]), the “Change in the coloring degree ΔYI” value is 5.0 and the Durability stood at 95%. In data set [2] (Table 6), the λ max was determined as 480 nm, the “Initial color ε(0)” value is on record as 0.01 and the Color-developing sensitivity was 0.2 -/min. In data set [2] (setting [8]), the “Color density ε(120)-ε(0)” value is on record as 1.0. The “Fading rate t1/2” value in data set [2] (setting [9]) is listed as 10 min.
For the molecule `CCCc1cc2c(CC)cc(OCC)cc2c2c1C=CC(c1ccc(OC)cc1)(c1cccs1)O2` (stereo not drawn) [Compound 40], the “Change in the coloring degree ΔYI” value in data set [1] (setting [3]) is on record as 2.7. In addition, the “Light resistance (durability)” value in data set [1] (setting [4]) is 96%. In data set [2] (setting [5]), the “Fading rate t1/2” value is on record as 5.2 min and the “Maximum absorption wavelength λmax” value worked out at 524 nm. For the same molecule, in data set [2] (setting [6]), the “Color density ε(120)-ε(0)” value is 0.9.
In the same order, the values of `CCCCc1cc2cccc(Br)c2c2c1C=CC(c1ccc(OC)c(F)c1)(c1ccc(OC)c(F)c1)O2` [Compound 38] are 2.8, 96%, 4.8 min, 482 nm and 0.8.
The corresponding values for `CCOc1ccc(C2(c3ccc(OCC)cc3)C=Cc3c(C)cc4ccccc4c3O2)cc1` [Compound 29] are 2.4, 98%, 5.8 min, 504 nm and 1.2.
As for `C1=CC2(CC3CCC2C3)Oc2c1ccc1ccccc21` (stereo not drawn) [Compound C1, Spiro(norbornane-2,2'-(2H)benzo(h)chromene), reference compound], in data set [1] (setting [7]), the “Change in the coloring degree ΔYI” value is on record as 2.0 and the Durability amounted to 90%. Further, in data set [2] (Table 6), the λ max was determined as 450 nm, the “Initial color ε(0)” value was 0.01 and the Color-developing sensitivity was 0.2 -/min. For the same molecule, the “Color density ε(120)-ε(0)” value in data set [2] (setting [8]) is on record as 1.0. The “Fading rate t1/2” value in data set [2] (setting [9]) is over 10 min.
`CC(C)(C)c1cc2ccccc2c2c1C=CC1(O2)C2(Cl)CCCC1(Cl)CCC2` (stereo not drawn) [Compound 22]: in data set [1] (setting [3]), the “Change in the coloring degree ΔYI” value is listed as 3.0. Also, in data set [1] (setting [4]), the “Light resistance (durability)” value is recorded as 80%. For the same molecule, in data set [2] (setting [5]), the “Fading rate t1/2” value amounted to 1.4 min and the “Maximum absorption wavelength λmax” value is recorded as 444 nm. Moreover, the “Color density ε(120)-ε(0)” value in data set [2] (setting [6]) was 0.5.

These data come from patent US6197225A, “Chromene compound” (Tokuyama Corporation, priority 1997, dated 2001).
